The values below come from a melting point compilation (Tetko et al.; mined from patent text by program, amines drawn as free bases though some values may be those of a salt).

As a reminder, the melting point is the temperature, or range, at which the solid turns liquid. With `O=C(Nc1ccccc1Sc1c(Cl)cncc1Cl)N[C@@H](Cc1ccc(NC(=O)c2c(Cl)cncc2Cl)cc1)C(=O)O`, the melting point was 211 °C.

Compound `CCC(CC)Nc1cc(C)nc(Oc2c(C)cc(Cl)cc2C)c1[N+](=O)[O-]` showed a melting point of 152 to 154 °C.

`O=c1nc(-c2c[nH]c3ccccc23)sc2ccccc12` registered a melting point of 276 to 277 °C.

Compound `COc1cc(OC)c2c(=O)[nH]c(-c3cc(C)c(OCCn4ccnc4)c(C)c3)nc2c1` had a melting point of 218 to 219 °C.

Consider `Cc1nc2c(O)cccn2c(=O)c1CCO`, for which the melting point was found to be 150 °C.

For `COC(=O)c1cc(I)ccn1`, the melting point lay in the range of 73 to 74 °C.

Turning to `CCOC(=O)C(=CNc1ncnc2ccc(CC)cc12)C(=O)OCC`, the melting point was in the range of 104 to 106 °C.

In turn, `CC(=O)NCCC1CCc2ccc3nc(C(F)(F)F)oc3c21` (stereo not given) returned a melting point of 114 to 116 °C.

Regarding `CCCN(CCC)CC1CCCN(CCNC(=O)N2c3ccccc3C(=O)Nc3cccnc32)C1` (stereo not given), the melting point is 153 to 155 °C.

For `Cc1oc(-c2ccccc2)nc1CCOc1ccc(NC2SC(=O)NC2=O)cc1` (stereo not given), the melting point was 179 to 180 °C.

For `COC(=O)c1ccc(I)nc1`, the melting point lay within 134 to 135 °C.

`CNC(=O)NC1CC(N)(C(=O)O)C2C(C(=O)O)C12` (stereo not given) returned a melting point of over 275 °C.

Regarding `CC(C)(C)NS(=O)(=O)c1ccc2c(c1)C=C(C(=O)O)C(C(F)(F)F)O2` (stereo not given), the melting point lay in the range of 229 to 234 °C.

Take `Cn1c(COc2ccc(CC3SC(=O)NC3=O)cc2)nc2ccc(OCCc3ccc(NC(=O)Nc4ccc(C(F)(F)F)cc4)cc3)cc21` (stereo not given): the melting point was 145 to 147 °C.

As to `CC(=O)NCc1ccc2c(c1)N(C1CCN(CCCc3ccc(F)cc3)CC1)CC2`, the melting point is 128 to 130 °C.

`COc1ccc(NN=C(Sc2cccc(OC)c2)C(C)=O)cc1` displayed a melting point of 97 to 99 °C.

The compound `Cc1cccc2nc(CCl)cn12` registered a melting point of 120 to 121 °C.

`CCCn1cc(Cc2ccc(C(=O)O)cc2OC)c2cc(CCNC(=O)N3CCOCC3)ccc21` displayed a melting point of 105 to 113 °C.

Take `COC1OC(CO)C(O)C(OC(C)=O)C1Cl` (stereo not given): the melting point lay within 105 to 106 °C.

`Cc1cc(C(c2cc(C)sc2C)c2cc(C)sc2C)c(C)s1` gave a melting point of 143 to 144 °C.

In the case of `C#CC(=O)Oc1ccc(OCc2ccccc2)cc1`, the melting point lay within 45 to 47.5 °C.

On to `Cc1ccc2sc3nncn3c2c1C`, for which the melting point fell in the range of 226 to 228 °C.

`CCCCCCCCCCc1cc2c(s1)-n1c(C)nnc1CN=C2c1ccccc1OC` gave a melting point of 90 to 92 °C.

Turning to `COc1ccc(-c2nc(C(N)=O)c(N)nc2-c2ccccc2)cn1`, the melting point fell in the range of 208 to 212 °C.

`O=[N+]([O-])C(CO)(CO)c1cc(Br)cnc1Cl` showed a melting point of 162 to 163 °C.

Compound `CN1C(=O)c2cccc(SCc3ccccc3)c2C1=O` displayed a melting point of 180 to 187 °C.

Consider `O=c1c2ccc(Cl)cc2[nH]c2c(O)nn(C3CCOc4ccccc43)c(=O)c12` (racemic), for which the melting point was over 300 °C.

Turning to `COc1cc(C(=O)N(C(C)C)C2CCCCC2)ccc1CN(C(=O)CCl)c1cccnc1O`, the melting point lay within 127 to 129 °C.

Compound `CN1Cc2nnnn2-c2ccccc21` registered a melting point of 107 to 110 °C.

On to `S=C(Nc1ccccc1)N1CCc2[nH]cnc2C1`, for which the melting point came out at 205 °C.

`CC1(C)CC(c2ccc(Cl)cc2)=C(c2ccc(S(C)(=O)=O)cc2)C1` returned a melting point of 144 to 145 °C.

In turn, `COc1ccc2c(c1)CCC(CN1CCC(O)(Cc3ccc(C)cc3)CC1)C2` (racemic) came in with a melting point of 91 to 94 °C.

Turning to `Brc1ccccc1P(c1cccc2ccccc12)c1cccc2ccccc12`, the melting point was in the range of 206 to 207 °C.

`CCOCc1nc(N)c2nccnc2n1` came in with a melting point of 152 to 154 °C.

For `C#CCOc1cc(Oc2ccccc2C)ncn1`, the melting point is 64.8 °C.

Compound `CC(=O)c1c(C)sc2ccnn12` returned a melting point of 130 to 131 °C.

Regarding `Cc1cccc(CC(Nc2ccccc2)C(=O)NC(C#N)COCc2ccc(F)c(C(=O)O)c2)c1` (stereo not given), the melting point fell in the range of 107 to 108 °C.

`O=[N+]([O-])c1cccnc1Nc1ccc(F)cc1F`: the melting point came to 110 °C.

With `COC(c1ccc(Cl)cc1)(c1cc2c3c(c1)c(-c1cccc(Cl)c1)cc(=O)n3CCC2)c1nncn1C` (stereo not given), the melting point came out at 132 °C.

Turning to `CC(C)CN1CCn2c1nc1[nH]cnc1c2=O`, the melting point lay within 233 to 237 °C.

Compound `O=C(O)c1ccoc1Cl` yielded a melting point of 138 to 141 °C.

For `Cc1ccc(C(O)=C(C#N)C(=O)C(C)(C)C)c([N+](=O)[O-])c1`, the melting point was 99 to 102 °C.

As to `O=C(O)COc1ccc2cc(-c3oc4ccccc4c3C(=O)CC3CCCC3)ccc2c1`, the melting point was in the range of 177 to 178 °C.

`[N-]=[N+]=N[C@@H](Cc1ccccc1)[C@H](O)CO` showed a melting point of 83 to 84 °C.

The compound `CCS(=O)(=O)Nc1ccc(-c2cccc(-c3nc(C(C)C)[nH]c3-c3cccc(C)n3)c2)cc1` showed a melting point of 123 to 135 °C.

Regarding `CN1C(=O)[C@H](NC(=O)/C=C/c2ccc(Cl)c(Cl)c2)N=C(c2ccccc2)c2ccccc21`, the melting point was 145 to 147 °C.

For the compound `CC(CSS)C(=O)Nc1ncccc1C(=O)O` (stereo not given), the melting point was in the range of 95 to 100 °C.

Compound `Cc1oc(-c2ccccc2)nc1CCC(=O)c1ccc(C=CC=O)cc1` came in with a melting point of 119 to 120 °C.

`CC(C)Oc1ccc(C(=O)NCCCCCCCNC(=O)c2ccc(OC(C)C)cc2)cc1` returned a melting point of 135 to 136 °C.

As for `CON(Cc1ccc(C)c(F)c1)C(=O)C1=C(O)C(=O)N(C)C1`, the melting point came out at 145 °C.

`COc1cc2nc(N3CCN(c4nc5c([nH]4)CCCCC5)CC3)nc(N)c2cc1OC`: the melting point was over 250 °C.

For the compound `COc1cccc2c1CCN([C@@H]1CN3CCC1CC3)C2=O`, the melting point is over 290 °C.

`COC(=O)CCCc1cc2nc(Cl)ccc2n1S(=O)(=O)c1ccc(Cl)cc1Cl` displayed a melting point of 100 to 101 °C.

In turn, `Cc1ccc(-c2cncc(OC3SCC(O)C(O)C3O)c2)cc1F` (stereo not given) gave a melting point of 213 °C.

In the case of `Cc1c(-c2ncncc2Br)ssc1=S`, the melting point was determined as 122 °C.

The compound `CCOc1ccc2[nH]cc(C(=O)NCc3ccccn3)c(=O)c2c1` returned a melting point of 222 to 224 °C.

As for `CC(=O)N1CC(C)(C)c2c1cc(C)c(O)c2C`, the melting point lay in the range of 173 to 174 °C.

For `CCOC(=O)C(=CNc1cn[nH]c1)C(C)=O`, the melting point is 126 to 128 °C.

As to `COCCOc1ncc(Br)nc1-c1ccc(Cl)cc1`, the melting point lay within 79 to 80 °C.

`CN(C)CC(=O)N(C)c1cccc(-c2ccnc3c(C(=O)c4ccccc4)cnn23)c1` registered a melting point of 166 to 168 °C.

Turning to `Cn1ncc(/C=C/C(=O)Nc2ccc(Cc3nnn[nH]3)cc2)c1-c1ccc(F)cc1`, the melting point lay within 252 to 253 °C.

On to `CNc1nc(-c2cccc(NC(=O)c3ccccc3OCc3ccccc3)c2)c2cc(OC)c(OC)cc2n1`, for which the melting point fell in the range of 192 to 194 °C.

Compound `OC(CNC1=NCCN1)c1ccc(Cl)c(Cl)c1` (stereo not given) returned a melting point of 148 °C.

For `CC(=O)OCCSCCCC(=O)NC/C=C\COc1cc(CN2CCCCC2)ccn1`, the melting point fell in the range of 36 to 40 °C.

Compound `COc1nc(Cl)cc2nc(S(=O)(=O)Nc3nn(C)cc3Br)nn12` came in with a melting point of 230 to 232 °C.
